Assay results published in US20050124645A1, “Methods and compositions for increasing CD4lymphocyte immune responsiveness” (priority 1998, published 2005).
Entries after “also recorded” stand apart in the source; their conditions may differ.

Assays:
[1] = biological target: T1, protein tyrosine phosphatase (PTP), particularly PTP1B (Homo sapiens, UniProt P18031); details: Pathak & Yi 2001; cited from earlier work
T1 sequence (P18031 1-435): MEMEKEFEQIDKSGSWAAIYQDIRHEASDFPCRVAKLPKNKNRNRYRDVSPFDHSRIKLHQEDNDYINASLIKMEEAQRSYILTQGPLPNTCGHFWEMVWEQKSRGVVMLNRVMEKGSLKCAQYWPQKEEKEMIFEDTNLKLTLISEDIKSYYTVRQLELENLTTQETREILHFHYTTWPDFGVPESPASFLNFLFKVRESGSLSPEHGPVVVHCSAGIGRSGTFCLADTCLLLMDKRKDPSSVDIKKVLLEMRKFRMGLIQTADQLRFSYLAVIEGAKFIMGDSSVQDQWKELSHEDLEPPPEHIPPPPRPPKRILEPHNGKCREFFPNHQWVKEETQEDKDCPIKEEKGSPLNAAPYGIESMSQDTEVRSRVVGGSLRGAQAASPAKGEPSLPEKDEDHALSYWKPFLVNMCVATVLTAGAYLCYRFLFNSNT

[2] = tested on: purified human CD4+ T cells; assay: Anti-TCR induced proliferation ([3H]-thymidine) of CD4-ligated purified CD4+ T cells, rescue by cytokines; assay type: cell-based; details: for reversal of inhibition of proliferation at higher cytokine concentrations: up to 80 U/ml, data not shown; for anti-TCR induced proliferative response of CD4-ligated T cells: 20 U/ml cytokine, gp120 or anti-CD4 ligation before plate-bound anti-TCR, 3 days, FIG. 1
Description: Heparinized venous blood from healthy adult human donors was separated on a Ficoll-Paque (Pharmacia Biotech) gradient to obtain lymphocytes. CD4^+ T cells were isolated by incubation with anti-CD8 mAb (OKT8, 20 Ag/ml, ATCC), followed by negative selection on goat anti-mouse IgG coated Immulan beads (Biotecx Laboratories).
Specifically, the purified CD4^+ T cells in balanced salts solution were incubated with or without gp120 (rgp120SF2, 10 μg/ml) and crosslinked with anti-gp120 antibody (1:250 dilution) or anti-CD4 mAb (anti-CD4, Leu-3α, 20 μg/ml) for 1 hr at 37° C.
Proliferation in response to plate-bound anti-TCR was determined as follows. Cells were washed, resuspended in RPMI-1640 culture media (GIBCO) supplemented with 10% fetal bovine serum (FBS, Gemini BioProducts) and 1×10^5 cells were added to triplicate wells of an anti-T cell receptor monoclonal antibody-coated (anti-TCR, BMA-031, 50 μg/ml) 96-well plate (Becton Dickinson). […] Culture plates were incubated for 3 days at 37° C. with 1 μCi/Well [^3H]-thymidine (NEN) present during the final 5 hours of culture. The cells were harvested and processed to determine ^3H-thymidine incorporation.

IL-2R (α-chain, CD25) = assay: Activation-induced IL-2R (CD25) expression on CD4 primed T cells by flow cytometry; assay type: cell-based, human; details: 20 U/ml cytokine; 24 hours; FIGS. 2A, 2B
Description: Expression of high affinity IL-2R (CD25) was also analyzed in CD4 primed T cells. To determine the expression of IL-2R (α-chain, CD25), the culture plates were set up as described in Example 1 and incubated at 37° C. for 24 hours. 2×10^5 cells were stained with FITC-conjugated anti-CD25 mAb (Pharmingen) and analyzed by flow cytometry (Coulter XL).

JAK3 [3] = assay: JAK3 expression and tyrosine phosphorylation (immunoprecipitation/Western blot) in TCR/CD3-stimulated CD4+ T cells with or without prior CD4 ligation; assay type: cell-based, human; details: for reversal of gp120 or anti-CD4 induced inhibition of JAK3 expression and activation: 20 U/ml cytokine, FIG. 4
Description: In this experiment, the present inventors determined the activation status of JAK3 in CD4^+ T cells which were activated through the TCR subsequent to CD4 ligation.
Briefly, the purified CD4^+ T cells were incubated with or without gp120 and anti-gp120 antibody or anti-CD4 for 1 hour at 37° C. 3×10^6 cells per well were incubated at 37° C. in an anti-CD3 mAb coated (anti-CD3, OKT3, 50 μg/ml, ATCC) 12-well plate. Cells were harvested after various times and lysed in Tris-buffered saline (TBS) containing 1% NP-40, phosphatase inhibitors and protease inhibitors. After micro centrifugation, the post-nuclear lysates were used for immunoprecipitation with anti-JAK3 polyclonal antibody (anti-JAK3, 10 μl, Santa Cruz Biotechnology). The antibody-protein complex was pelleted using Sepharose-conjugated Protein A (Sigma) boiled in sample buffer (0.4% SDS, 3% glycerol and 1% β-mercaptoethanol (2-ME)) and the proteins were separated by 7.5% SDS-PAGE. The proteins were transferred to nitrocellulose membrane and immunoblotted with antiphosphotyrosine mAb (anti-P-Tyr, Ab-2, Oncogene Science) Positive protein bands were detected with horseradish peroxidase (HRP)-conjugated goat anti-mouse IgG (Jackson ImmunoResearch) and SuperSignal Substrate (SSS, Pierce). Membranes were stripped with 62.5 mM Tris-HCl, pH 6.7, containing 10 mM 2-ME, and 2% SDS, immunoblotted with anti-JAK3, and developed with HRP-conjugated protein A and SSS.
In some experiments, 1.5×10^6 cell equivalents of post-nuclear lysate were boiled with sample buffer and separated by 7.5% SDS-PAGE. Nitrocellulose membrane was immunoblotted with (anti-JAK3 and then stripped and immunoblotted with anti-actin mAb (anti-actin, Sigma), as described above. Optical density (O.D.) of positive bands was measured with the Stratagene Eagle Eye II.

JAK3 [4] = assay: JAK3 expression (Western blot) in mock- or HIV-1 NL4-3-infected CD4+ T cell PHA blasts; assay type: cell-based, human; details: 20 U/ml, 48 hours
Description: In this experiment, purified human CD4^+ T cells isolated as described above and activated with PHA for 3 days were infected for 4 days with a laboratory cloned strain of HIV-1, NL4-3. […] Cells were harvested and lysed with TBS/1% NP40 and analyzed on 7.5% SDS PAGE. Western blots using anti-JAK3 or anti-actin were prepared as described in Example 3.

JAK1 = JAK1 activation in T cells stimulated through TCR/CD3 with or without prior CD4 ligation; assay type: cell-based, human; details: CD4 ligation before TCR/CD3 stimulation; FIG. 5
From the text: Another Janus family kinase, JAK1, associates with the β chain of IL-2R and with the α chains of IL-4R and IL-7R, and is autophosphorylated upon activation (Johnston et al. (1994) Nature, 370:151; and Russell et al. (1994) Science, 270:797).

CD4 = CD4 (Homo sapiens, UniProt P01730); details: ligation of CD4; literature; cited from earlier work
HIV-1 LTR = assay: HIV-1 LTR-luciferase activity in resting CD4+ T cells; assay type: cell-based; details: STAT5 expression vector or IL-2 for 1 hour, FIG. 17
From the text: Resting CD4^+ T cells were transfected with a construct containing luciferase under the control of HIV-1 LTR or a control luciferase construct (Dual-luciferase© Reporter Assay System, Promega, Madison, Wis.). The cells were also optionally transfected with an expression vector encoding STAT5. […] The luciferase activity of the cellular lysates was subsequently measured.

Molecule: O.O.O.O.O.O.O.O.O.O=C([O-])[C@@H]1[O][Sb]2([O-])([O][Sb]34([OH])[O][C@H]([C@H](O)CO)[C@H]([O]3)[C@H](C(=O)[O-])[O]4)[O][C@H]([C@H](O)CO)[C@@H]1[O]2.[Na+].[Na+].[Na+] [pentostam, stibogluconate sodium]
- cellular protein tyrosine phosphatase (PTP) inhibition, particularly PTP1B [1]: inhibit

Molecule: IL-6: cytokine that binds to receptors on T cells which lack γc
- reversal of inhibition of proliferation at higher cytokine concentrations [2]: did not reverse the inhibition of proliferation

Molecule: IL-7: cytokine which binds to receptors on T cells having γc; Genzyme
- anti-TCR induced proliferative response of CD4-ligated T cells [2]: restored the proliferative response
- activation-induced CD25 expression on CD4 primed T cells (IL-2R (α-chain, CD25)): restored activation-induced CD25 expression
- reversal of gp120 or anti-CD4 induced inhibition of JAK3 expression and activation (JAK3 [3]): completely reversed
- JAK3 expression in anti-CD3 stimulated HIV infected T cells (JAK3 [4]; versus stimulated HIV-infected cells without cytokine): significantly increased; also recorded: increases JAK3 expression
- JAK3 expression in anti-CD3 stimulated mock-infected T cells (JAK3 [4]; versus stimulated cells without cytokine): increased JAK3 expression slightly

Molecule: gp120: HIV surface glycoprotein, crosslinked with anti-gp120 antibody
- extent of inhibition of JAK3 expression and activation (JAK3 [3]; CD4 ligation before anti-CD3 stimulation, FIG. 3A): incomplete
- TCR/CD3-induced expression and phosphorylation of JAK3 (JAK3 [3]; CD4 ligation before anti-CD3 stimulation, FIGS. 3A, 3B): inhibits
- activation status of JAK1 (JAK1): did not significantly change
- TCR/CD3-induced IL-2R expression, IL-2 production, and proliferation (CD4): inhibit

B1: IL-4: cytokine which binds to receptors on T cells having γc; R&D Systems (protein, UniProt P05112 25-153, looked up)
Interleukin-4: HKCDITLQEIIKTLNSLTEQKTLCTELTVTDIFAASKNTTEKETFCRAATVLRQFYSHHEKDTRCLGATAQQFHRHKQLIRFLKRLDRNLWGLAGLNSCPVKEANQSTLENFLERLKTIMREKYSKCSS
- anti-TCR induced proliferative response of CD4-ligated T cells [2]: restored the proliferative response
- activation-induced CD25 expression on CD4 primed T cells (IL-2R (α-chain, CD25)): restored activation-induced CD25 expression
- reversal of gp120 or anti-CD4 induced inhibition of JAK3 expression and activation (JAK3 [3]): completely reversed

B2: STAT5: over-expressed from an expression vector encoding STAT5 (protein, UniProt P42229 1-794, looked up)
Signal transducer and …: MAGWIQAQQLQGDALRQMQVLYGQHFPIEVRHYLAQWIESQPWDAIDLDNPQDRAQATQLLEGLVQELQKKAEHQVGEDGFLLKIKLGHYATQLQKTYDRCPLELVRCIRHILYNEQRLVREANNCSSPAGILVDAMSQKHLQINQTFEELRLVTQDTENELKKLQQTQEYFIIQYQESLRIQAQFAQLAQLSPQERLSRETALQQKQVSLEAWLQREAQTLQQYRVELAEKHQKTLQLLRKQQTIILDDELIQWKRRQQLAGNGGPPEGSLDVLQSWCEKLAEIIWQNRQQIRRAEHLCQQLPIPGPVEEMLAEVNATITDIISALVTSTFIIEKQPPQVLKTQTKFAATVRLLVGGKLNVHMNPPQVKATIISEQQAKSLLKNENTRNECSGEILNNCCVMEYHQATGTLSAHFRNMSLKRIKRADRRGAESVTEEKFTVLFESQFSVGSNELVFQVKTLSLPVVVIVHGSQDHNATATVLWDNAFAEPGRVPFAVPDKVLWPQLCEALNMKFKAEVQSNRGLTKENLVFLAQKLFNNSSSHLEDYSGLSVSWSQFNRENLPGWNYTFWQWFDGVMEVLKKHHKPHWNDGAILGFVNKQQAHDLLINKPDGTFLLRFSDSEIGGITIAWKFDSPERNLWNLKPFTTRDFSIRSLADRLGDLSYLIYVFPDRPKDEVFSKYYTPVLAKAVDGYVKPQIKQVVPEFVNASADAGGSSATYMDQAPSPAVCPQAPYNMYPQNPDHVLDQDGEFDLDETMDVARHVEELLRRPMDSLDSRLSPPAGLFTSARGSLS
- activity from the HIV-1 LTR (luciferase activity) (HIV-1 LTR): increased activity

B3: IL-12: cytokine that binds to receptors on T cells which lack γc (protein, UniProt P29459 23-219; P29460 23-328, looked up)
Interleukin-12 subunit alpha: RNLPVATPDPGMFPCLHHSQNLLRAVSNMLQKARQTLEFYPCTSEEIDHEDITKDKTSTVEACLPLELTKNESCLNSRETSFITNGSCLASRKTSFMMALCLSSIYEDLKMYQVEFKTMNAKLLMDPKRQIFLDQNMLAVIDELMQALNFNSETVPQKSSLEEPDFYKTKIKLCILLHAFRIRAVTIDRVMSYLNAS
Interleukin-12 subunit beta: IWELKKDVYVVELDWYPDAPGEMVVLTCDTPEEDGITWTLDQSSEVLGSGKTLTIQVKEFGDAGQYTCHKGGEVLSHSLLLLHKKEDGIWSTDILKDQKEPKNKTFLRCEAKNYSGRFTCWWLTTISTDLTFSVKSSRGSSDPQGVTCGAATLSAERVRGDNKEYEYSVECQEDSACPAAEESLPIEVMVDAVHKLKYENYTSSFFIRDIIKPDPPKNLQLKPLKNSRQVEVSWEYPDTWSTPHSYFSLTFCVQVQGKSKREKKDRVFTDKTSATVICRKNASISVRAQDRYYSSSWSEWASVPCS
- reversal of inhibition of proliferation at higher cytokine concentrations [2]: did not reverse the inhibition of proliferation
